# Results as given in article PMC11192711, “Automated radiosynthesis and preclinical evaluation of two new PSMA-617 derivatives radiolabelled via [^18F]AlF^2+ method” (EJNMMI Radiopharmacy and Chemistry, 2024).
# Target: T1, PSMA (Homo sapiens, UniProt Q04609)
# T1 construct: expressed in transfected cells; host or cells: PC3-PIP cells (PC3 stably expressing PSMA), fixed with 0.2% glutaraldehyde
# Assay: Competitive cell binding assay on fixed PC3-PIP cells against [^18F]F-PSMA-1007
# Conditions: 0.75 nM [^18F]F-PSMA-1007, 60 min room temperature, read-out: inhibition potency toward PMSA (IC50)
# Procedure: Competitive cell binding experiments were conducted using PC3-PIP cells, [^18F]F-PSMA-1007, 300 nM PSMA-1007, and 8 different concentrations of PSMA-617-NODA (7) and PSMA-617-RESCA (9) (0, 0.01, 0.1, 1, 10, 100, 1000, 10,000 nM).
# For in vitro uptake, the PC3-PIP cell line, which is isogenic to PC3 and stably expresses PSMA(Ghosh et al. [2005]), and PC-3 cell line (PSMA negative) were used. 40.000 PC3-PIP and PC3 cells were seeded in 96-well cell culture plates and at the confluence were fixed adding 100 µl of 0.2% glutaraldehyde in PBS to medium. After 5 min incubation at 37 °C, the cells were washed six times with PBS. Then 200 µl of 0.1 M Glycine in PBS with 0.02% of sodium azide were added. After 5 min, the cells were washed 6 times with PBS and finally 250 µl of 1% BSA in PBS with 0.2% of sodium azide were added. The competitive cell binding assays were performed as follows: PC3-PIP fixed cells were incubated with [^18F]F-PSMA-1007 at a concentration of 0.75 nM in the presence of 8 different concentrations of PSMA-617-NODA (7) and PSMA-617-RESCA (9) (0, 0.01, 0.1, 1, 10, 100, 1000, 10,000 nM) and of 300 nM of PSMA-1007. […] The activity in the supernatants and cell pellets was determined using a gamma counter (1282 Compugamma CS, LKB Wallac, Finland). Cellular uptake was calculated as the percentage of radioactivity in cell pellets. […]
# T1 sequence (Q04609 whole entry): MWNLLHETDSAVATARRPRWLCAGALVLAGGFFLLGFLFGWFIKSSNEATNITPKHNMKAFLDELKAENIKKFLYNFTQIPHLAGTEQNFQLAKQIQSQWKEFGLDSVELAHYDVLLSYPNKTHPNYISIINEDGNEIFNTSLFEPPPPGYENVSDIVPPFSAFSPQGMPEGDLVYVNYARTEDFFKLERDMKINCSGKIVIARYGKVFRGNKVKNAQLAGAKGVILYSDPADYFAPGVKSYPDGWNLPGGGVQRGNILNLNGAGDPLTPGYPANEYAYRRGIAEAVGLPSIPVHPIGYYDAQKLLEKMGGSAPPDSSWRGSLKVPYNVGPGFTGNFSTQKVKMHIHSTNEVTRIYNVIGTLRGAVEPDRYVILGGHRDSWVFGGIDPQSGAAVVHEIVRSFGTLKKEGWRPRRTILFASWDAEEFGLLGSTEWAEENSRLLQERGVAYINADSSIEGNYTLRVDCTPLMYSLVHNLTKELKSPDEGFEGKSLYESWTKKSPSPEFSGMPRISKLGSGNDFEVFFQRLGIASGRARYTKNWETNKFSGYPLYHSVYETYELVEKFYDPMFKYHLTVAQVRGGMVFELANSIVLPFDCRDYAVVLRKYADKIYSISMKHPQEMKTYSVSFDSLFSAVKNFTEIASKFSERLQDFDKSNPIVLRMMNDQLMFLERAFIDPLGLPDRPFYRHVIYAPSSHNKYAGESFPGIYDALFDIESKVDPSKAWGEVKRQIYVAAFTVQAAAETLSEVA
row,SMILES,IC50 [nM]
1,"O=C(O)CC[C@H](NC(=O)N[C@@H](CCCCNC(=O)[C@H](Cc1ccc2ccccc2c1)NC(=O)[C@H]1CC[C@H](CNC(=O)CCCN2CCN(CC(=O)O)CCN(CC(=O)O)CC2)CC1)C(=O)O)C(=O)O [PSMA-617-NODA, (((S)-5-((S)-2-((1R,4S)-4-((4-(4,7-bis(carboxymethyl)-1,4,7-triazonan-1-yl)butanamido)methyl)cyclohexane-1-carboxamido)-3-(naphthalen-2-yl)propanamido)-1-carboxypentyl)carbamoyl)-L-glutamic acid]",64
2,"O=C(O)CCC(NC(=O)NC(CCCCNC(=O)C(Cc1ccc2ccccc2c1)NC(=O)C1CCC(CNC(=O)Cc2ccc(CN(CC(=O)O)C3CCCCC3N(CC(=O)O)CC(=O)O)cc2)CC1)C(=O)O)C(=O)O [PSMA-617-RESCA, (((S)-5-((S)-2-((1R,4S)-4-((2-(4-((((1R,2R)-2-(bis(carboxymethyl)amino)cyclohexyl)(carboxymethyl)amino)methyl)phenyl)acetamido)methyl)cyclohexane-1-carboxamido)-3-(naphthalen-2-yl)propanamido)-1-carboxypentyl)carbamoyl)-L-glutamic acid]",20
